In paper PMC7697893, “Novel 1-Amidino-4-Phenylpiperazines as Potent Agonists at Human TAAR1 Receptor: Rational Design, Synthesis, Biological Evaluation and Molecular Docking Studies” (Pharmaceuticals, 2020):
Counter-ions that a name gives are not always drawn. Like-named read-outs stand apart in the source and are kept apart here. One block for each molecule: values may come before it.

Legend:
[1] = Cell cytotoxicity assay (MTT) on Vero-76 cells; type: cell-based, Cercopithecus Aethiops; conditions: Cercopithecus aethiops (African green monkey), Vero-76 cells; MTT method, 48–96 h; CC50±SEM
Protocol: (§1) Vero-76 cells (ATCC CRL 1587 Cercopithecus Aethiops) were seeded at an initial density of 4 × 10^5 cells/mL in 24-well plates, in culture medium (Dulbecco’s Modified Eagle Medium (D-MEM) with L-glutamine, supplemented with fetal bovine serum (FBS), 0.025 g/L kanamycin). Cell cultures were then incubated at 37 °C in a humidified, 5% CO2 atmosphere in the absence or presence of serial dilutions of test compounds. Cell viability was determined after 48–96 h at 37 °C by the MTT staining method. The results are expressed as CC50, which is the concentration of compound necessary to inhibit cell growth by 50%. Each CC50 value is the mean and standard deviation of at least three separate experiments performed in duplicate.

Vero-76 cells = assay: Cell cytotoxicity assay (MTT) on Vero-76 cells; type: cell-based, Cercopithecus Aethiops; conditions: ratio of Vero-76 CC50 to hTAAR1 EC50
Protocol: as §1

hTAAR1 [2] = target: T1, hTAAR1 (Homo sapiens, UniProt Q96RJ0); assay: Functional activity at hTAAR1, cAMP BRET biosensor in HEK-293T cells; type: cell-based; conditions: for Emax at 10 µM: HEK-293T, read-out: hTAAR1 Activity
T1 construct: expressed in transfected cells; host or cells: HEK-293T (ATCC)
T1 sequence (Q96RJ0 1-339): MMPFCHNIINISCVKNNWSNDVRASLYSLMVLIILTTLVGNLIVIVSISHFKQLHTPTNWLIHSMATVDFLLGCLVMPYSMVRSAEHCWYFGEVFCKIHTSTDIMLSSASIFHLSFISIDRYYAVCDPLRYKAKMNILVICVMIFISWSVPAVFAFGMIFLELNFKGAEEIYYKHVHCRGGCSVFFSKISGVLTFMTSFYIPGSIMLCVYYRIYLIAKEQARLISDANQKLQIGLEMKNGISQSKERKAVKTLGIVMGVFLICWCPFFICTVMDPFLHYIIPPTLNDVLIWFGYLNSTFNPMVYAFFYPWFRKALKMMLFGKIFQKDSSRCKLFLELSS
Protocol: The activity of the compounds was measured using human embryonic kidney 293 (HEK-293T) cells co-transfected with plasmids encoding hTAAR1 and a cAMP Bioluminescence Resonance Energy Transfer (BRET) biosensor, or empty vector as a control. TYR was used as a positive control for agonism. Firstly, all the compounds were tested at 10 μM either for agonistic or antagonistic activity.
BRET screening was described in detail elsewhere. HEK-293T (ATCC) cells were transiently сo-transfected with plasmids encoding hTAAR1 and a cAMP BRET biosensor using Lipofectamine® (ThermoFisher) reagent, and then plated in 96-well plates (Corning) at […] per well. On the following day, culture medium was removed and 70 μL of phosphate-buffered saline containing calcium and magnesium was added to each well, followed by the addition of 10 μL […] 3-isobutyl-1-methylxanthine solution (Sigma), and 10 μL 50 μM coelenterazine-h solution (Promega). All tested compounds were dissolved in DMSO to yield 10 mM stock solutions. After 10 min incubation, either 10 μL of vehicle or 10× of the concentrated solution of compound to be tested (10 μM final concentration) was added. Readings were collected using a Mithras LB943 multimodal plate reader (Berthold Technologies). The BRET signal is determined by calculating the ratio of the light emitted at 505 to 555 nm to the light emitted at 465 to 505 nm.
Curves were fitted by applying non-linear regression models on GraphPad Prism 6 (GraphPad Software).

hTAAR1 [3] = target: T1, hTAAR1
mTAAR1 = tested on: mTAAR1; design: method as in PMID 27823885, PMID 29407948; conditions: Figure 2, biguanides SET1 and SET2; cited from earlier work
human hepatocyte = conditions: cited from earlier work
[4] = cited from earlier work
[5] = design: method as in PMID 5169226; conditions: rats, intraperitoneal, 100 mg/kg; cited from earlier work
[6] = design: method as in PMID 5719030; conditions: potentiating pressor effect of tyramine and NE; cited from earlier work
[7] = dose–response 10 nM to 10 μM, means of 4 experiments, errors within 10%, read-out: hTAAR1 EC50
[8] = as compared with 1 µM TYR (full agonism), compounds tested at 10 μM
[9] = Figure 2, biguanides SET1 and SET2; cited from earlier work
[10] = Figure 2, biguanides SET1 and SET2; read-out: hTAAR1 EC50; cited from earlier work
[11] = hTAAR1, amidines of this paper, from EC50, read-out: pEC50 (converted)

Compound: Cl.N=C(N)N1CCN(c2ccccn2)CC1 [Compound 10, 4-(Pyridin-2-yl)Piperazine-1-Carboximidamide Hydrochloride]
CC50 [1]: 74 ± 5 µM
Therapeutic index (CC50/EC50) (Vero-76 cells): 37
Emax at 10 µM (hTAAR1 [2]): 30%
EC50 (hTAAR1 [2]; [7]): > 2 µM
melting point: 205 to 208 °C

Emax at 10 µM (hTAAR1 [2]; [8]): 80%
EC50 (hTAAR1 [2]; [7]): 0.064 µM
Compound: N=C(N)N1CCN(c2cccc(C(F)(F)F)c2)CC1 [Compound 9, 4-[(3-Trifluoromethyl)phenyl]piperazine-1-carboximidamide hydrochloride]
CC50 [1]: > 100 µM
Therapeutic index (CC50/EC50) (Vero-76 cells): 1562

Compound: NC(N)=NC(N)=Nc1ccc(Cl)cc1 [BIG4]
hTAAR1 EC50 (hTAAR1 [3]; [9]): inactive
EC50 (hTAAR1 [3]; read-out: hTAAR1 EC50; Figure 2, biguanides SET1 and SET2; cited from earlier work): > 10 µM
EC50 (mTAAR1): 2.1 µM

Compound: N=C(N)NC(=N)NCc1ccccc1 [BIG10, 1-benzylbiguanide]
EC50 (hTAAR1 [3]; [10]): > 10 µM
EC50 (mTAAR1): 0.78 µM

Compound: Cl.N=C(N)N1CCN(c2ccccc2Cl)CC1 [Compound 3, 4-(2-Chlorophenyl)piperazine-1-carboximidamide hydrochloride]
CC50 [1]: > 100 µM
Therapeutic index (CC50/EC50) (Vero-76 cells): 625
Emax at 10 µM (hTAAR1 [2]): 90%
EC50 (hTAAR1 [2]; [7]): 0.16 µM

Compound: Cc1c(F)cccc1[C@H]1COC(N)=N1 [RO5263397]
human hepatocyte clearance (human hepatocyte): acceptable
AMES/MNT test [4]: negative

Compound: Cl.N=C(N)N1CCN(c2ccccc2)CC1 [Compound 1, 4-Phenylpiperazine-1-carboximidamide hydrochloride]
CC50 [1]: 84 ± 5 µM
Therapeutic index (CC50/EC50) (Vero-76 cells): 227
increase of the concentration of NE in the brain [5]: about 34.5%
increase of the concentration of NE in the heart [5]: ~42.7%
Emax at 10 µM (hTAAR1 [2]): 71%
EC50 (hTAAR1 [2]; [7]): 0.37 µM
sympathomimetic effect [6]: a rise in the blood pressure
melting point: 214 to 217 °C

Compound: COc1cccc(N2CCN(C(=N)N)CC2)c1.Cl [Compound 7, 4-(3-Methoxyphenyl)piperazine-1-carboximidamide hydrochloride]
CC50 [1]: 87 ± 4 µM
Therapeutic index (CC50/EC50) (Vero-76 cells): 357
Emax at 10 µM (hTAAR1 [2]): 32%
EC50 (hTAAR1 [2]; [7]): 0.244 µM

Compound: Cl.N=C(N)N1CCN(c2cccc(Cl)c2Cl)CC1 [Compound 15, 4-(2,3-Dichlorophenyl)piperazine-1-carboximidamide hydrochloride]
CC50 [1]: 82 ± 5 µM
Therapeutic index (CC50/EC50) (Vero-76 cells): 4100
Emax at 10 µM (hTAAR1 [2]): 81%
EC50 (hTAAR1 [2]; [11]): 0.02 µM

Compound: CCc1[nH]nc(C(=O)Nc2ccc([C@H]3CNCCO3)cc2)c1C [(4-Aminophenyl)morpholino derivative]
hTAAR1 efficacy (hTAAR1 [3]; partial agonist; cited from earlier work): 42%

Compound: NC(N)=NC(N)=NCc1cccc(Cl)c1 [BIG12]
EC50 (mTAAR1): 0.097 µM

Compound: COc1ccc(N=C(N)N=C(N)N)cc1 [BIG9]
hTAAR1 EC50 (hTAAR1 [3]; [9]): inactive
mTAAR1 EC50 (mTAAR1): inactive

Compound: N=C(N)N=C(N)N1CCN(c2ccccc2)CC1 [Compound 1a, 1-phenyl-4-biguanylpiperazine]
EC50 (mTAAR1): 2.38 µM

Compound: N=C(N)N=C(N)N1CCN(c2ccccc2Cl)CC1 [Compound 3a]
EC50 (mTAAR1): 2.66 µM

Compound: Cc1ccccc1N1CCN(C(=N)N)CC1.Cl [Compound 2, 4-(o-Tolyl)piperazine-1-carboximidamide hydrochloride]
CC50 [1]: 80 ± 5 µM
Therapeutic index (CC50/EC50) (Vero-76 cells): 2667
Emax at 10 µM (hTAAR1 [2]): 100%
EC50 (hTAAR1 [2]; [11]): 0.0302 µM
melting point: 159 to 162 °C

Compound: Cl.N=C(N)N1CCN(c2cccc(Cl)c2)CC1 [Compound 4, 4-(3-Chlorophenyl)piperazine-1-carboximidamide hydrochloride]
CC50 [1]: 90 ± 3 µM
Therapeutic index (CC50/EC50) (Vero-76 cells): 45
Emax at 10 µM (hTAAR1 [2]): 35%
EC50 (hTAAR1 [2]; [7]): > 2 µM
sympathomimetic effect [6]: a rise in the blood pressure

Compound: COc1ccccc1N1CCN(C(=N)N)CC1.Cl [Compound 6, 4-(2-Methoxyphenyl)piperazine-1-carboximidamide hydrochloride]
CC50 [1]: 83 ± 5 µM
Therapeutic index (CC50/EC50) (Vero-76 cells): 892
Emax at 10 µM (hTAAR1 [2]): 64%
EC50 (hTAAR1 [2]; [7]): 0.093 µM

melting point: 170 to 173 °C
Compound: N=C(N)N1CCN(c2cccc(C(F)(F)F)c2)CC1 (as salt: hydrochloride) [Compound 9, 4-[(3-Trifluoromethyl)phenyl]piperazine-1-carboximidamide hydrochloride]

Compound: NCCc1ccccc1 [β-PEA, β-phenylethylamine]
pEC50 (hTAAR1 [3]; hTAAR1; endogenous agonist, no reference given; cited from earlier work): 6.70 M

Compound: NC(N)=NC(N)=Nc1ccccc1Cl [BIG2]
EC50 (mTAAR1): 0.41 µM

Compound: COc1ccc(N2CCN(C(=N)N)CC2)cc1.Cl [Compound 8, 4-(4-Methoxyphenyl)piperazine-1-carboximidamide hydrochloride]
CC50 [1]: 88 ± 2 µM
hTAAR1 Activity (hTAAR1 [2]; [8]): inactive

Compound: Cl.N=C(N)N1CCN(c2ccc(Cl)c(Cl)c2)CC1 [Compound 16, 4-(3,4-Dichlorophenyl)piperazine-1-carboximidamide hydrochloride]
CC50 [1]: 89 ± 4 µM
Therapeutic index (CC50/EC50) (Vero-76 cells): 1254
Emax at 10 µM (hTAAR1 [2]): 49%
EC50 (hTAAR1 [2]; [7]): 0.071 µM
melting point: 235 to 237 °C

Compound: Cl.N=C(N)N1CCN(c2ccc(F)cc2)CC1 [Compound 14, 4-(4-Fluorophenyl)piperazine-1-carboximidamide hydrochloride]
CC50 [1]: 94 ± 6 µM
hTAAR1 Activity (hTAAR1 [2]; [8]): inactive

Compound: N=C(N)N=C(N)N1CCN(c2ncccn2)CC1 [Compound 10a]
hTAAR1 EC50 (hTAAR1 [3]; [9]): inactive
EC50 (mTAAR1): 9 µM

Compound: Cc1ccc(NC(=N)N=C(N)N)cc1 [BIG8]
hTAAR1 EC50 (hTAAR1 [3]; [9]): inactive
EC50 (hTAAR1 [3]; [10]): > 10 µM
EC50 (mTAAR1): 1.7 µM

Compound: Cl.N#Cc1ccccc1N1CCN(C(=N)N)CC1 [Compound 12, 4-(2-Cyanophenyl)piperazine-1-carboximidamide hydrochloride]
CC50 [1]: 78 ± 2 µM
hTAAR1 Activity (hTAAR1 [2]; [8]): inactive
melting point: 236 to 238 °C

Compound: NC(N)=NC(N)=NCc1ccc(Cl)c(Cl)c1 [BIG14]
EC50 (mTAAR1): 0.036 µM

Compound: NC1=N[C@H](c2ccc(Br)cc2)CO1 [Compound 27b]
pEC50 (hTAAR1 [3]; 2-aminooxazolines reported by Roche, Table S1; cited from earlier work): 5.00 M

Compound: COc1ccc(CN=C(N)N=C(N)N)cc1 [BIG17]
hTAAR1 EC50 (hTAAR1 [3]; [9]): inactive
mTAAR1 EC50 (mTAAR1): inactive

hTAAR1 Activity (hTAAR1 [2]; [8]): 100%
EC50 (hTAAR1 [2]; [7]): 0.066 µM
Compound: NCCc1ccc(O)cc1 [TYR, tyramine, reference compound]

Compound: Cl.N=C(N)N1CCN(c2ccccc2F)CC1 [Compound 13, 4-(2-Fluorophenyl)piperazine-1-carboximidamide hydrochloride]
CC50 [1]: 87 ± 5 µM
hTAAR1 Activity (hTAAR1 [2]; [8]): inactive
melting point: 145 to 148 °C

Compound: Cl.N=C(N)N1CCN(c2ccc(Cl)cc2)CC1 [Compound 5, 4-(4-Chlorophenyl)piperazine-1-carboximidamide hydrochloride]
CC50 [1]: 95 ± 3 µM
hTAAR1 Activity (hTAAR1 [2]; [8]): inactive
sympathomimetic effect [6]: a rise in the blood pressure

Compound: Cl.N=C(N)N1CCN(c2ncccn2)CC1 [Compound 11, 4-(Pyrimidin-2-yl)piperazine-1-carboximidamide hydrochloride]
CC50 [1]: 64 ± 2 µM
hTAAR1 Activity (hTAAR1 [2]; [8]): inactive

Compound: COc1ccc(N2CCN(C(N)=NC(=N)N)CC2)cc1 [Compound 8a]
mTAAR1 EC50 (mTAAR1): inactive
